From patent US11590115B2, “Pseudomonas strains and their metabolites to control fish diseases” (T3 BIOSCIENCE, LLC, priority 2020, dated 2023)
In brackets after ≈: the same amount, converted by molar mass. Where two headings read alike, the source gives them in different places.

Legend:
[1] = test system: Saprolegnia parasitica; experiment: Minimum lethal concentration (MLC) determination; type: cell-based; conditions: Saprolegnia parasitica (saprolegniasis); GY/20° C.; in triplicate
[2] = test system: Tenacibaculum maritimum; experiment: MIC determination in broth, 96 well plates (OD600 and plating); type: cell-based; conditions: Tenacibaculum maritimum (tenacibaculosis), (MA/MB)/15° C.
[3] = test system: Vibrio parahaemolyticus; experiment: as above
[4] = test system: Streptococcus iniae; experiment: as above; type: cell-based; conditions: Streptococcus iniae (streptococcosis), (TSAY/TSBY)/28° C.
[5] = test system: Aeromonas salmonicida; experiment: as above; type: cell-based; conditions: Aeromonas salmonicida (furunculosis), (TSA/TSB)/20° C.
[6] = test system: Streptococcus agalactiae; experiment: as above; type: cell-based; conditions: Streptococcus agalactiae (streptococcosis), (TSAY/TSBY)/28° C.

Q: `CSC1=C(C)C(=O)C(=O)NC1=O` [RejuAgro A] was tested. Which “MLC (minimum lethal concentration)” value [1] did it give?
A: 100 µg/mL (≈ 540 µM)

Q: What about the MIC [2] of the same molecule?
A: 12.5 µg/mL (≈ 67.5 µM)

Q: What about the MIC ([2]; read-out: MIC) of the same molecule?
A: 12.5 µg/mL (≈ 67.5 µM)

Q: And the MIC ([3]; Vibrio parahaemolyticus)?
A: 0.39 µg/mL (≈ 2.11 µM)

Q: And the MIC ([3]; Vibrio parahaemolyticus (vibriosis, acute hepatopancreatic necrosis disease), (TSA2/TSB2)/37° C.)?
A: 0.39 µg/mL (≈ 2.11 µM)

Q: And the MIC [4]?
A: 3.13 µg/mL (≈ 16.9 µM)

Q: And the MIC ([4]; read-out: MIC)?
A: 3.13 µg/mL (≈ 16.9 µM)

Q: What about the MIC [5] of the same molecule?
A: 1.56 µg/mL (≈ 8.42 µM)

Q: What about the MIC ([5]; read-out: MIC) of the same molecule?
A: 1.56 µg/mL (≈ 8.42 µM)

Q: What about the MIC [6] of the same molecule?
A: 1.56 µg/mL (≈ 8.42 µM)

Q: And the MIC ([6]; read-out: MIC)?
A: 1.56 µg/mL (≈ 8.42 µM)
